The supplement of paper PMC11061612

Tests used:
[1] = system: OSC-20 (Oral Cavity Carcinoma); experiment: combination Emax (second highest fraction inhibited in the dose matrix, 72 h); higher = more inhibition; extreme values may be limits of the assay
Summary of the method: (§1)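 Bliss excess equals the observed combination effect minus the expected value EA + EB − EA·EB, where EA and EB are the effects of each agent alone. Combination Emax is the second-highest inhibition within the matrix. Inhibition was scaled from CellTiter-Glo 2.0 luminescence, with 0 set by vehicle wells and 1 by blank wells, after 72 hours of two-drug dosing of cells plated in 1536-well plates.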

[2] = system: SCC-15 (Oral Cavity Carcinoma); experiment: as above
Summary of the method: as §1

[3] = system: KMOE-2 (Acute Myeloid Leukemia); experiment: as above
Summary of the method: as §1

[4] = system: HOP-62 (Lung Adenocarcinoma); experiment: as above
Summary of the method: as §1

[5] = system: NUGC-3 (Gastric Carcinoma); experiment: as above
Summary of the method: as §1

PWR-1E (Non-Cancerous) [6] = experiment: as above
Summary of the method: as §1

[7] = system: OVCAR-4 (Ovarian Carcinoma); experiment: as above
Summary of the method: as §1

[8] = system: NCI-H1915 (Non-Small Cell Lung Carcinoma); experiment: as above
Summary of the method: as §1

[9] = system: HSC-4 (Oral Cavity Carcinoma); experiment: as above
Summary of the method: as §1

[10] = system: VA-ES-BJ (Other Solid Carcinomas); experiment: as above
Summary of the method: as §1

[11] = system: OE19 (Esophageal Adenocarcinoma); experiment: as above
Summary of the method: as §1

[12] = system: C-4-I (Cervical Carcinoma); experiment: as above
Summary of the method: as §1

[13] = system: NEC8 (Other Solid Carcinomas); experiment: as above
Summary of the method: as §1

[14] = system: HGC-27 (Gastric Carcinoma); experiment: as above
Summary of the method: as §1

[15] = system: SU8686 (Pancreatic Carcinoma); experiment: as above
Summary of the method: as §1

[16] = system: TE-1 (Esophageal Squamous Cell Carcinoma); experiment: as above
Summary of the method: as §1

[17] = system: OSC-20 (Oral Cavity Carcinoma); experiment: Bliss excess, mean over the matrix (fraction); higher = more synergy
Summary of the method: as §1

[18] = system: SCC-15 (Oral Cavity Carcinoma); experiment: as above
Summary of the method: as §1

[19] = system: KMOE-2 (Acute Myeloid Leukemia); experiment: as above
Summary of the method: as §1

[20] = system: HOP-62 (Lung Adenocarcinoma); experiment: as above
Summary of the method: as §1

[21] = system: NUGC-3 (Gastric Carcinoma); experiment: as above
Summary of the method: as §1

PWR-1E (Non-Cancerous) [22] = experiment: as above
Summary of the method: as §1

[23] = system: OVCAR-4 (Ovarian Carcinoma); experiment: as above
Summary of the method: as §1

[24] = system: NCI-H1915 (Non-Small Cell Lung Carcinoma); experiment: as above
Summary of the method: as §1

[25] = system: HSC-4 (Oral Cavity Carcinoma); experiment: as above
Summary of the method: as §1

[26] = system: VA-ES-BJ (Other Solid Carcinomas); experiment: as above
Summary of the method: as §1

[27] = system: OE19 (Esophageal Adenocarcinoma); experiment: as above
Summary of the method: as §1

[28] = system: C-4-I (Cervical Carcinoma); experiment: as above
Summary of the method: as §1

[29] = system: NEC8 (Other Solid Carcinomas); experiment: as above
Summary of the method: as §1

[30] = system: HGC-27 (Gastric Carcinoma); experiment: as above
Summary of the method: as §1

[31] = system: SU8686 (Pancreatic Carcinoma); experiment: as above
Summary of the method: as §1

[32] = system: TE-1 (Esophageal Squamous Cell Carcinoma); experiment: as above
Summary of the method: as §1

| Structure (SMILES) | combination Emax [1] | combination Emax [2] | combination Emax [3] | combination Emax [4] | combination Emax [5] | combination Emax (PWR-1E (Non-Cancerous) [6]) | combination Emax [7] | combination Emax [8] | combination Emax [9] | combination Emax [10] | combination Emax [11] | combination Emax [12] | combination Emax [13] | combination Emax [14] | combination Emax [15] | combination Emax [16] | Bliss excess [17] | Bliss excess [18] | Bliss excess [19] | Bliss excess [20] | Bliss excess [21] | Bliss excess (PWR-1E (Non-Cancerous) [22]) | Bliss excess [23] | Bliss excess [24] | Bliss excess [25] | Bliss excess [26] | Bliss excess [27] | Bliss excess [28] | Bliss excess [29] | Bliss excess [30] | Bliss excess [31] | Bliss excess [32] |
| --- | --- | --- | --- | --- | --- | --- | --- | --- | --- | --- | --- | --- | --- | --- | --- | --- | --- | --- | --- | --- | --- | --- | --- | --- | --- | --- | --- | --- | --- | --- | --- | --- |
| CC(=O)c1c(C)c2cnc(Nc3ccc(N4CCNCC4)cn3)nc2n(C2CCCC2)c1=O [Palbociclib] + CN(CC[C@H](CSC1=CC=CC=C1)NC2=C(C=C(C=C2)S(=O)(=O)NC(=O)C3=CC=C(C=C3)N4CCC(CC4)[C@H](C5=CC=CC=C5C6=CC=C(C=C6)Cl)O)S(=O)(=O)C(F)(F)F)CCO [AZD4320] (first compound max 10 µM, 7x7, partner max 1 µM) | 0.182 | 0.206 | 0.96 | 0.332 | 0.714 | 0.278 | 0.22 | 0.491 | 0.0868 | 0.309 | 0.467 | 0.372 | 0.209 | 0.764 | 0.0398 | 0.439 | -0.0381 | -0.0694 | -0.0213 | -0.0777 | -0.0659 | -0.0204 | -0.0354 | -0.0273 | -0.0833 | -0.0288 | -0.0369 | -0.0686 | -0.0337 | 0.0123 | -0.0447 | -0.0322 |
| C[C@@H](c1ccc2nccn2c1)n1nnc2ncc(-c3cnn(C)c3)nc21 [Savolitinib] + CN(CC[C@H](CSC1=CC=CC=C1)NC2=C(C=C(C=C2)S(=O)(=O)NC(=O)C3=CC=C(C=C3)N4CCC(CC4)[C@H](C5=CC=CC=C5C6=CC=C(C=C6)Cl)O)S(=O)(=O)C(F)(F)F)CCO [AZD4320] (first compound max 1 µM, 7x7, partner max 1 µM) | 0.129 | 0.29 | 0.59 | 0.122 | 0.279 | 0.211 | 0.126 | 0.132 | 0.24 | 0.182 | 0.22 | 0.234 | 0.302 | 0.233 | 0.173 | 0.289 | -0.0626 | -0.0604 | -0.0537 | -0.0729 | -0.0429 | -0.0221 | -0.0293 | -0.0519 | -0.0591 | -0.029 | -0.0091 | -0.0399 | -0.0021 | -0.0098 | -0.0255 | -0.0316 |
| COc1nnc2ccc(N3CCC(c4ccc(OCCN5CCN(C)C(=O)[C@H]5C)cc4)CC3)nn12 [AZD5153] + CN(CC[C@H](CSC1=CC=CC=C1)NC2=C(C=C(C=C2)S(=O)(=O)NC(=O)C3=CC=C(C=C3)N4CCC(CC4)[C@H](C5=CC=CC=C5C6=CC=C(C=C6)Cl)O)S(=O)(=O)C(F)(F)F)CCO [AZD4320] (first compound max 1 µM, 7x7, partner max 1 µM) | 0.132 | 0.39 | 0.993 | 0.635 | 0.639 | 0.714 | 0.458 | 0.57 | 0.217 | 0.517 | 0.501 | 0.762 | 0.962 | 0.772 | 0.0559 | 0.485 | -0.0543 | 0.001 | 0.0295 | 0.011 | 0.0423 | 0.0243 | 0.0377 | 0.0678 | -0.0287 | 0.0839 | 0.0208 | 0.0692 | 0.0236 | -0.0329 | -0.0373 | -0.0193 |
